# According to ChEMBL document CHEMBL6103599, “Design of Potent Menin-KMT2A Interaction Inhibitors with Improved In Vitro ADME Properties and Reduced hERG Affinity” (ACS Med Chem Lett, 2025):
# How the values were obtained:
# [1] = tested on: MV4-11; assay: Antiproliferative activity against human MV4-11 cells assessed as cell growth inhibition measured after 7 days by CellTiter-Glo assay; type: functional, cell-based; conditions: MV4-11, 168 h
# [2] = tested on: HL-60; assay: Cytotoxicity against human HL-60 cells; type: functional, cell-based
# [3] = biological target: Voltage-gated inwardly rectifying potassium channel KCNH2 (Homo sapiens, UniProt Q12809); assay: Inhibition of hERG expressed in CHO cells; type: toxicity, cell-based
# [4] = Inhibition of His6-tagged MEN1 458-551 deletion A5T mutant (2 to 583 residues)/MLL (unknown origin) transfected in Escherichia coli BL21 (DE3) protein-protein interaction by TR-FRET assay; set-up: species or system Homo sapiens
# [5] = Apparent permeability across apical to basolateral side in MDR1 knockout dog MDCKII cells incubated for 2 hrs by LC-MS/MS analysis; type: ADME, cell-based, Canis lupus familiaris, MDCK-II; conditions: MDCK
# [6] = Metabolic stability in human hepatocytes assessed as clearance by LC-MS analysis; type: ADME, cell-based, Hepatocyte; conditions: read-out: CLH
# [7] = biological target: Cytochrome P450 3A4 (Homo sapiens, UniProt P08684); assay: Inhibition of CYP3A4 (unknown origin) using midazolam as substrate; type: ADME
# [8] = Cmax in male CD-1 mouse at 30 mg/kg, po measured after 8 hrs by LC-MS/MS analysis; type: ADME, organism-based; conditions: in vivo
# [9] = Drug excretion in male Sprague-Dawley rat urine at 3 mg/kg, iv measured after 8 hrs by LC-MS/MS analysis; type: ADME, organism-based; conditions: read-out: Drug excretion
# [10] = Clearance in male CD-1 mouse at 1 mg/kg, iv measured after 8 hrs by LC-MS/MS analysis; type: ADME, organism-based; conditions: in vivo
# [11] = Oral bioavailability in male CD-1 mouse at 30 mg/kg measured after 8 hrs by LC-MS/MS analysis; type: ADME, organism-based; conditions: in vivo
# [12] = Hepatic extraction ratio in male CD-1 mouse at 1 mg/kg, iv measured after 8 hrs by LC-MS/MS analysis; type: ADME, organism-based; conditions: in vivo, read-out: ERH
# [13] = Volume of distribution at steady state in male CD-1 mouse at 1 mg/kg, iv measured after 8 hrs by LC-MS/MS analysis; type: ADME, organism-based; conditions: in vivo, read-out: Vdss
# [14] = AUCinfinity in male CD-1 mouse at 1 mg/kg, iv measured after 8 hrs by LC-MS/MS analysis; type: ADME, organism-based; conditions: in vivo
# [15] = Half life in male CD-1 mouse at 1 mg/kg, iv measured after 8 hrs by LC-MS/MS analysis; type: ADME, organism-based; conditions: in vivo
# [16] = Binding affinity to His6-tagged MEN1 458-551 deletion A5T mutant (unknown origin) assessed as dissociation constant by SPR analysis; set-up: species or system Homo sapiens
# [17] = Metabolic stability in human liver microsomes assessed as clearance incubated for 20 mins by LC-MS/MS analysis; type: ADME, Microsome; conditions: read-out: CLH
# Sequence of Voltage-gated inwardly rectifying potassium channel KCNH2 (Q12809 whole entry, the tested form may be a part): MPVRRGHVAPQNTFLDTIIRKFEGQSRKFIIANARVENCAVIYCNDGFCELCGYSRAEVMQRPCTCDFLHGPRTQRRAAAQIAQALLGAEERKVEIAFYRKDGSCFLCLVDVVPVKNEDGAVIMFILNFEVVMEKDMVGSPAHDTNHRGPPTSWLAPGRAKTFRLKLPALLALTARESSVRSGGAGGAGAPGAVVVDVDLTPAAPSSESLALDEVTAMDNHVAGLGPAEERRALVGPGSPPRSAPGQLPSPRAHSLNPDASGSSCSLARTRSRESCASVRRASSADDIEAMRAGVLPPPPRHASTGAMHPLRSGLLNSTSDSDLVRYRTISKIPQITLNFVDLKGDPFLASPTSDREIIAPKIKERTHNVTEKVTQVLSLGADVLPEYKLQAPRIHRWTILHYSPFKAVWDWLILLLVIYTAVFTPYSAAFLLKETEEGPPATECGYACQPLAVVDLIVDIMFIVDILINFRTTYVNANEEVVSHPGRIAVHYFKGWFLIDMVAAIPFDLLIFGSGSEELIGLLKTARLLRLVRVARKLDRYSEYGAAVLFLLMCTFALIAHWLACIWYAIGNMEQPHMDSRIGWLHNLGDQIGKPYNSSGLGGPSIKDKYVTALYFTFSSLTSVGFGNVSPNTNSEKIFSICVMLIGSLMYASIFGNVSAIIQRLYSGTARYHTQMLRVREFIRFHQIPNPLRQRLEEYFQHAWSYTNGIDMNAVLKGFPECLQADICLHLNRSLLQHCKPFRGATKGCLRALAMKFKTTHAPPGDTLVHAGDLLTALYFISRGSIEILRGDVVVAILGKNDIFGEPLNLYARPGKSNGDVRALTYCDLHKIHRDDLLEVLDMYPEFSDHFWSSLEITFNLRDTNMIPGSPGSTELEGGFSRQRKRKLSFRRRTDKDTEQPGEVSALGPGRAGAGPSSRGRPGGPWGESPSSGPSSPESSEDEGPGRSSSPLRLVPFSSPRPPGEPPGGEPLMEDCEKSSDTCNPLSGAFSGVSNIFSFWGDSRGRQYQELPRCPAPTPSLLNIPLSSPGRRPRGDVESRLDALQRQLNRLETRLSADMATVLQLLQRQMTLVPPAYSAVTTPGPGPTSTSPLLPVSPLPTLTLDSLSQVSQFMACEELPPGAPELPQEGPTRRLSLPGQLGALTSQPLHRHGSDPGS
# Sequence of Cytochrome P450 3A4 (P08684 whole entry): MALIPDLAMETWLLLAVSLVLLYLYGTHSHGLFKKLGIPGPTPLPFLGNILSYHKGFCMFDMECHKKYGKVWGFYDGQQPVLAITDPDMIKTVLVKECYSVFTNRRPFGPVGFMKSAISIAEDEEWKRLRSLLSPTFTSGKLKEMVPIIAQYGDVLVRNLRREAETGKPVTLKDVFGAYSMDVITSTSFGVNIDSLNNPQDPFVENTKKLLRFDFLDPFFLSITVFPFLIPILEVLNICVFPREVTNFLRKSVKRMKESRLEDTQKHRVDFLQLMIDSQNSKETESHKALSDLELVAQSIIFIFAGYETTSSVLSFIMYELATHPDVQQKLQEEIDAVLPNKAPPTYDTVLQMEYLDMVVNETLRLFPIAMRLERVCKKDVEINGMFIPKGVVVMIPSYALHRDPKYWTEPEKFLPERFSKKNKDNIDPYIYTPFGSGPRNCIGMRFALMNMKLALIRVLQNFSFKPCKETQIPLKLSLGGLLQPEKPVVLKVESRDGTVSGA
IC50 [1] [nM],IC50 [4] [nM],Papp A→B at 2 h [5] [×10⁻⁶ cm/s],CLint scaled [6] [mL/min/kg],SMILES,IC50 [2] [nM],IC50 [3] [nM],further results
72,12,,,CCN(C(=O)c1cc(F)ccc1Oc1cncnc1N1CC2(CCN(CC(C)(C)C)CC2)C1)C(C)C,> 5000,2900,
21,5,29,6,CCC1(CN2CCC3(CC2)CN(c2ncnnc2Oc2ccc(F)cc2CN2C(=O)COC[C@H]2C)C3)CC1,,,
13,4,8,8,CSC1(CN2CCC3(CC2)CN(c2ncnnc2Oc2ccc(F)cc2CN2C(=O)COC[C@H]2C)C3)CC1,,,
20,13,,,CCN(C(=O)c1cc(F)ccc1Oc1cncnc1N1CC2(CCN(CC34CC(C3)C4)CC2)C1)C(C)C,> 5000,,
314,62,4,6,CC1(CN2CCC3(CC2)CN(c2ncnnc2Oc2ccc(F)cc2C(=O)N2CCOCC2)C3)CC1,,46000,
102,4,,,CCN(C(=O)c1cc(F)ccc1Oc1cncnc1N1CC2(CCN(CC3CCCC3)CC2)C1)C(C)C,> 5000,,
> 5000,160,,,CCN(C(=O)c1cc(F)ccc1Oc1cncnc1N1CC2(CCN(C(C)=O)CC2)C1)C(C)C,> 5000,,
58,11,7,8,CCN(C(=O)c1cc(F)ccc1Oc1nnccc1N1CC2(CCN(CC3(C)CC3)CC2)C1)C(C)C,,28000,
502,33,,,CCN(C(=O)c1cc(F)ccc1Oc1cncnc1N1CC2(CCN(C[C@@H](O)C(F)(F)F)CC2)C1)C(C)C,> 5000,,
53,12,,,CCN(C(=O)c1cc(F)ccc1Oc1cncnc1N1CC2(CCN(Cc3ccc(C#N)cc3)CC2)C1)C(C)C,> 5000,< 1000,
231,6,23,27,C[C@@H]1CCCN1C(=O)c1cc(F)ccc1Oc1nncnc1N1CC2(CCN(CC3(C)CC3)CC2)C1,,,
112,6,9,4,CC1(CN2CCC3(CC2)CN(c2ncnnc2Oc2ccc(F)cc2CN2C(=O)CC4CC42)C3)CC1 (racemic),,,clearance [10]: 104 mL/min/kg; CLint scaled [17]: 4 mL/min/kg; Vd [13]: 4.14 L/kg; AUC(0-inf) [14]: 160 ng·h/mL; half-life [15]: 0.64 h

# The remaining lines, values behind:
SMILES,IC50 [1] [nM],IC50 [4] [nM],Papp A→B at 2 h [5] [×10⁻⁶ cm/s],CLint scaled [6] [mL/min/kg],IC50 [2] [nM],IC50 [3] [nM],further results
CCN(C(=O)c1cc(F)ccc1Oc1nncnc1N1CC2(CCN(CC3(SC)CC3)CC2)C1)C(C)C,12,8,42,14,,75000,
CC1(CN2CCC3(CC2)CN(c2ncnnc2Oc2ccc(F)cc2C(=O)N2C4CCC2COC4)C3)CC1,74,8,3,5,,65000,IC50 [7]: > 50000 nM; Cmax [8]: 5000 ng/mL; dose excreted at 8 h [9]: 22%; clearance [10]: 48.7 mL/min/kg; bioavailability [11]: 74%; hepatic extraction ratio at 8 h [12]: 0.541; Vd [13]: 4.34 L/kg; AUC(0-inf) [14]: 342 ng·h/mL; half-life [15]: 1.68 h
CCN(C(=O)c1cc(F)ccc1Oc1cncnc1N1CC2(CCN(C3CCCC3)CC2)C1)C(C)C,166,18,,,> 5000,,
CCN(C(=O)c1cc(F)ccc1Oc1cncnc1N1CC2(CCN(CC3(C)CC3)CC2)C1)C(C)C,22,7,26,11,> 5000,10800,
CC1(CN2CCC3(CC2)CN(c2ncnnc2Oc2ccc(F)cc2CN2CCOCC2=O)C3)CC1,190,5,8,6,,,
CCN(C(=O)c1cc(F)ccc1Oc1cncnc1N1CC2(CCN(C(=O)C34CC5CC(CC3C5)C4)CC2)C1)C(C)C,58,8,,,> 5000,> 100000,
C[C@@H]1COCC(=O)N1Cc1cc(F)ccc1Oc1nncnc1N1CC2(CCN(CC3(C)CC3)CC2)C1,19,4,7,4,,,Kd [16]: 0.05 nM
CCN(C(=O)c1cc(F)ccc1Oc1nncnc1N1CC2(CCN(CC3(C)CC3)CC2)C1)C(C)C,19,10,35,6,,28000,clearance [10]: 129 mL/min/kg; Vd [13]: 14.1 L/kg; AUC(0-inf) [14]: 92 ng·h/mL; half-life [15]: 2.22 h
CSC1(CN2CCC3(CC2)CN(c2ncnnc2Oc2ccc(F)cc2CN2CCCC2=O)C3)CC1,345,5,6,11,,,
CC(C)C1(CN2CCC3(CC2)CN(c2ncnnc2Oc2ccc(F)cc2CN2C(=O)COC[C@H]2C)C3)CC1,19,4,35,10,,,clearance [10]: 130 mL/min/kg; Vd [13]: 5.44 L/kg; AUC(0-inf) [14]: 128 ng·h/mL; half-life [15]: 0.76 h
CCN(C(=O)c1cc(F)ccc1Oc1cncnc1N1CC2(CCN(CC(C)C)CC2)C1)C(C)C,416,66,,,> 5000,,
CCN(C(=O)c1cc(F)ccc1Oc1cncnc1N1CC2(CCN(CC3CCCCC3)CC2)C1)C(C)C,23,8,,,> 5000,3500,
C[C@@H]1CCCCN1C(=O)c1cc(F)ccc1Oc1nncnc1N1CC2(CCN(CC3(C)CC3)CC2)C1,145,20,21,9,,,
C[C@@H]1COC[C@H](C)N1C(=O)c1cc(F)ccc1Oc1nncnc1N1CC2(CCN(CC3(C)CC3)CC2)C1,65,9,13,5,,,
C[C@@H]1COC[C@@H](C)N1C(=O)c1cc(F)ccc1Oc1nncnc1N1CC2(CCN(CC3(C)CC3)CC2)C1,48,23,8,7,,,
CON(C(=O)c1cc(F)ccc1Oc1nncnc1N1CC2(CCN(CC3(C)CC3)CC2)C1)C(C)C,10,4,30,7,,,clearance [10]: 78.7 mL/min/kg; hepatic extraction ratio at 8 h [12]: 0.874; Vd [13]: 1.7 L/kg; AUC(0-inf) [14]: 212 ng·h/mL; half-life [15]: 0.48 h
C[C@@H]1CCC(=O)N1Cc1cc(F)ccc1Oc1nncnc1N1CC2(CCN(CC3(C)CC3)CC2)C1,40,4,9,3,,,clearance [10]: 51.6 mL/min/kg; hepatic extraction ratio at 8 h [12]: 0.574; Vd [13]: 5.48 L/kg; AUC(0-inf) [14]: 323 ng·h/mL; half-life [15]: 1.77 h
CCN(C(=O)c1cc(F)ccc1Oc1cncnc1N1CC2(CCN(C[C@H]3CC[C@H](NS(=O)(=O)CC)CC3)CC2)C1)C(C)C [REVUMENIB],10,0.149,,,> 5000,5000,
